Measured values: US5622967A, “Quinolone carboxamide Calpain inhibitors” (Sterling Winthrop, Inc., priority 1995, dated 1997)

target: T1, human calpain I (Homo sapiens, UniProt P07384); assay: Calpain I Inhibition Assay (3H-acetyl casein degradation); assay type: biochemical; conditions: human erythrocyte calpain I; 3H-acetyl Casein substrate; 25° C., 2 hours incubation; read-out: IC50 against human calpain I
T1 construct: The isolation of calpain from human erythrocytes was similar to that described by Wang et al. (1988); from tissue; host or cells: human red blood cells (packed red cells, American Red Cross); partially purified on DEAE-Sephacel and phenyl-Sepharose CL-4B
T1 sequence (P07384 1-714): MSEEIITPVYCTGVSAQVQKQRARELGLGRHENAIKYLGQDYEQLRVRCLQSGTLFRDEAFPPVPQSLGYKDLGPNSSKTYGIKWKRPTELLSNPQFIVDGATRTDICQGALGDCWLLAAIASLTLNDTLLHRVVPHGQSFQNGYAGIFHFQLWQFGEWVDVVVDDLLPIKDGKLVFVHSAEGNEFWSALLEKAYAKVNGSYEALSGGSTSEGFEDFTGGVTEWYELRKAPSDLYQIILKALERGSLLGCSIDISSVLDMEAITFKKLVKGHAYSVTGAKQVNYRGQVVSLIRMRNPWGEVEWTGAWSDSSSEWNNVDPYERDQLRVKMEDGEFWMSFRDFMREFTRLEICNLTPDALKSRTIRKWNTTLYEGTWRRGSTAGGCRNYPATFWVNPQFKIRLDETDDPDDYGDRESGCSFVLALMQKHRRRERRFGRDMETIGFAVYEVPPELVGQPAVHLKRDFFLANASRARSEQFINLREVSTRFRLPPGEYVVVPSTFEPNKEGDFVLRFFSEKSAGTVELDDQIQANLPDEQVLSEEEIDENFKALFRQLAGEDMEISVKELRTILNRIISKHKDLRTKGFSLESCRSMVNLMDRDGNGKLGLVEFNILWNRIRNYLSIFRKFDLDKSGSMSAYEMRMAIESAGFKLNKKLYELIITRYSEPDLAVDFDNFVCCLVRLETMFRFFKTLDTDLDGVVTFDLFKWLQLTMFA
T1 sequence (P04632 1-268 partner): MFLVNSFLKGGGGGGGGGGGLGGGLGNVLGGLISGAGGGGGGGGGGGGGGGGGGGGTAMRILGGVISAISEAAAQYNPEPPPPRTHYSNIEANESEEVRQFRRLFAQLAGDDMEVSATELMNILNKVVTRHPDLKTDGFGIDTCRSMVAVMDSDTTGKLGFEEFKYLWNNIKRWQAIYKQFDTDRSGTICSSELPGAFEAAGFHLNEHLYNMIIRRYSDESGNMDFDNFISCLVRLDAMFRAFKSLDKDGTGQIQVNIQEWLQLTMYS
Experimental: Compounds of the present invention were tested for calpain I inhibition activity using the following assay method.
Calpain I InhibitionAssay
Isolation of Human erythrocyte Calpain I
Human red blood cells were obtained from the Northeastern New York Chapter of the American Red Cross. The isolation of calpain from human erythrocytes was similar to that described by Wang et al. (1988). One unit of in-dated packed red cells was diluted with an equal volume of diluting/wash solution and centrifuged. The supernatant was removed and the procedure was repeated. The washed cells were pooled, lysed with 700 mL of lysing solution and centrifuged to remove cell debris. The membrane-free hemolysate was added to 500 mL DEAE-sephacel and the slurry was stirred gently at 4° C. for 1 hour.
Batch elution was done using DEAE-sephacel wash solution to remove a large amount of unwanted protein, most of which was hemoglobin. The slurry was poured into a column connected in tandem to a phenyl-sepharose CL-4B column. Material eluted from the DEAE-sephacel was applied directly to the phenyl-sepharose CL-4B. The phenyl-sepharose CL-4B column was washed first with 75 mM NaCl and then with no salt. Calpain begins to disassociate from the […] with the 75 mM NaCl but the majority should adhere to the column until the salt is removed. Fractions were collected (20 mL), assayed for caseinolytic activity with and without calpastatin and pooled accordingly. The pooled fractions were concentrated using an Amicon stirred cell equipped with a YK-10 membrane. Calpain was stored at 4° C. with 10 mM EDTA and 5 mM 2-mercaptoethanol and is stable for at least 6 months.
The tritated assay is a modification of that described by Gopalakrishna, R. and Barsky, S.H., Anal. Biochem., 148, 413,1985. All reagents, compound 25 ul, HEPES buffer 25 ul, CaCl2 50 ul, enzyme 50 ul, and ^3 H-acetyl Casein, were combined in 1 mL polystyrene titer plates. The plates were preincubated at 25° C. for 5 min with gentle shaking prior to the addition of substrate. The incubation was continued for an additional 2 hours and was terminated with the addition of 0.5 mL ice cold 5% TCA. Unlabled casein was added, samples were centrifuged and 0.5 mL of the supernatant was counted in 5 mL of Ready Protein liquid scintillation cocktail for 2 min. This assay measures ^3 H-acetyl Casein degradation as an endpoint for calpain activity.

IC50	Structure (SMILES)
7000 nM	NC(=O)c1cn(-c2ccc(O)c(O)c2)c2cc(-c3ccncc3)ccc2c1=O [Example 2, 1,4,Dihydro-1-(3.4-dihydroxyphenyl)-4-oxo-7-(4-pyridinyl),3-quinolinecarboxamide]
7400 nM	NC(=O)c1cn(-c2ccc(O)cc2F)c2cc(-c3ccncc3)ccc2c1=O [Example 4, 1,4-Dihydro-1-(2-fluoro-4-hydroxyphenyl)-4-oxo-7-(4-pyridinyl)-3-quinolinecarboxamide]
2000 nM	NC(=O)c1cn(-c2ccc(O)cc2)c2cc(-c3ccncc3)ccc2c1=O [Example 1, 1,4-Dihydro-1-(4-hydroxyphenyl)-4-oxo-7-(4-pyridinyl)=3-quinolinecarboxamide]
1700 nM	NC(=O)c1cn(-c2ccc(O)cc2Cl)c2cc(-c3ccoc3)ccc2c1=O [Example 10, 1,4-Dihydro-1-(2-chloro-4-hydroxyphenyl)-4-oxo-7-(3-furyl)-3-quinolinecarboxamide]
600 nM	NC(=O)c1cn(-c2ccc(O)cc2Cl)c2cc(-c3ccncc3)ccc2c1=O [Example 8, 1,4-Dihydro-1-(2-chloro-4-hydroxyphenyl)-4-oxo-7-(4-pyridinyl)-3-quinolinecarboxamide]
2000 nM	NC(=O)c1cn(-c2ccc(O)c(Cl)c2)c2cc(-c3ccncc3)ccc2c1=O [Example 3, 1,4-Dihydro-1-(3-chloro-4-hydroxyphenyl)-4-oxo-7-(4-pyridinyl)-3-quinolinecarboxamide]
16000 nM	NC(=O)c1cn(-c2ccc(O)cc2C(F)(F)F)c2cc(-c3ccncc3)ccc2c1=O [Example 7, 1,4-Dihydro-1-(2-trifluoromethyl-4-hydroxyphenyl)-4-oxo-7-(4-pyridinyl)-3-quinolinecarboxamide]
12000 nM	NC(=O)c1cn(-c2ccc(O)cc2Cl)c2cc(-c3cccnc3)ccc2c1=O [Example 9, 1,4,Dihydro-1-(2-chloro-4-hydroxyphenyl)-4-oxo-7-(3-pyridinyl)-3-quinolinecarboxamide]
570 nM	NC(=O)c1cn(-c2ccc(O)cc2Cl)c2cc(-c3cc[nH]n3)ccc2c1=O [Example 13, 1,4-Dihydro-1-(2-chloro-4-hydroxyphenyl)-4-oxo-7-(3-pyrazolyl)-3-quinolinecarboxamide]
1700 nM	NC(=O)c1cn(-c2ccc(O)cc2Cl)c2cc(-c3ccnnc3)ccc2c1=O [Example 12, 1,4-Dihydro-1-(2-chloro-4-hydroxyphenyl)-4-oxo-7-(4-pyridazinyl)-3-quinolinecarboxamide]
510 nM	Cc1cc(O)ccc1-n1cc(C(N)=O)c(=O)c2ccc(-c3ccncc3)cc21 [Example 6, 1,4-Dihydro-1-(2-methyl-4-hydroxyphenyl)-4-oxo-7-(4-pyridinyl)-3-quinolinecarboxamide]
1700 nM	NC(=O)c1cn(-c2ccc(O)cc2Cl)c2cc(-c3ccncc3Cl)ccc2c1=O [Example 11]
5000 nM	NC(=O)c1cn(-c2ccc(O)c(F)c2)c2cc(-c3ccncc3)ccc2c1=O [Example 5, 1,4-Dihydro-1-(3-fluoro-4-hydroxyphenyl)-4-oxo-7-(4-pyridinyl)-3-quinolinecarboxamide]
